Assay results taken from ChEMBL document CHEMBL3102722, “Diarylacylhydrazones: Clostridium-selective antibacterials with activity against stationary-phase cells” (Bioorg Med Chem Lett, 2014).
In brackets after ≈: the same amount, converted by molar mass. Activity calls are given as the source filed them. No cut-off for these calls is given here.

Key:
Clostridium perfringens = experiment: Antibacterial activity against Clostridium perfringens ATCC 13124 assessed as growth inhibition after 20 to 24 hrs; type: functional
Enterococcus faecalis = experiment: Antibacterial activity against Enterococcus faecalis ATCC 47077 assessed as growth inhibition after 20 to 24 hrs; type: functional
Escherichia coli = experiment: Antibacterial activity against Escherichia coli ATCC 700927 assessed as growth inhibition after 20 to 24 hrs; type: functional
Staphylococcus aureus = experiment: Antibacterial activity against Staphylococcus aureus 8325-4 assessed as growth inhibition after 20 to 24 hrs; type: functional
Streptococcus mutans = experiment: Antibacterial activity against Streptococcus mutans ATCC 700610 assessed as growth inhibition after 20 to 24 hrs; type: functional
[1] = test system: Limosilactobacillus reuteri; experiment: Antibacterial activity against Lactobacillus reuteri ATCC 23272 assessed as growth inhibition after 20 to 24 hrs; type: functional
Bifidobacterium longum = experiment: Antibacterial activity against Bifidobacterium longum ATCC BAA-999 assessed as growth inhibition after 20 to 24 hrs; type: functional
Bacteroides fragilis = experiment: Antibacterial activity against Bacteroides fragilis ATCC 25285 assessed as growth inhibition after 20 to 24 hrs; type: functional; details: NCTC 9343
Clostridioides difficile [2] = experiment: Antibacterial activity against Clostridium difficile clinical isolate assessed as growth inhibition; type: functional
Clostridioides difficile [3] = experiment: Antibacterial activity against stationary phase of Clostridium difficile CD196 assessed as cell killing at 1 to 20 X MIC after 3 to 6 hrs; type: functional
Clostridioides difficile [4] = experiment: Antibacterial activity against Clostridium difficile CD196 assessed as growth inhibition after 20 to 24 hrs; type: functional
Lacticaseibacillus casei = experiment: Antibacterial activity against Lactobacillus casei ATCC 334 assessed as growth inhibition after 20 to 24 hrs; type: functional
[5] = test system: Bacteroides thetaiotaomicron; experiment: Antibacterial activity against Bacteroides thetaiotaomicron ATCC 29148 assessed as growth inhibition after 20 to 24 hrs; type: functional
FaDu = experiment: Cytotoxicity against human FADU cells assessed as concentration required to decrease cell viability incubated for 24 hrs followed by compound washout measured after 18 hrs by resazurin dye-based assay
Clostridioides difficile [6] = experiment: Bactericidal activity against Clostridium difficile CD196 after 20 to 24 hrs; type: functional; details: read-out: MBC99.9
Clostridioides difficile [7] = experiment: Antibacterial activity against stationary phase of Clostridium difficile CD196 assessed as cell killing after 3 to 6 hrs; type: functional
[8] = Cytotoxicity against human HepG2 cells assessed as concentration required to decrease cell viability incubated for 24 hrs followed by compound washout measured after 18 hrs by resazurin dye-based assay; details: read-out: Activity
[9] = Antibacterial activity against Clostridium difficile 630 clinical isolate assessed as growth inhibition after 20 to 24 hrs; type: functional, Clostridioides difficile 630; details: Clostridioides difficile
Clostridioides difficile [10] = experiment: Antibacterial activity against Clostridium difficile UK6 clinical isolate assessed as growth inhibition after 20 to 24 hrs; type: functional
Clostridioides difficile [11] = experiment: Antibacterial activity against Clostridium difficile 10463 clinical isolate assessed as growth inhibition after 20 to 24 hrs; type: functional
Clostridioides difficile [12] = experiment: Antibacterial activity against Clostridium difficile VPI clinical isolate assessed as growth inhibition after 20 to 24 hrs; type: functional
Clostridioides difficile [13] = experiment: Antibacterial activity against Clostridium difficile GC1 clinical isolate assessed as growth inhibition after 20 to 24 hrs; type: functional
Clostridioides difficile [14] = experiment: Antibacterial activity against Clostridium difficile UK1 clinical isolate assessed as growth inhibition after 20 to 24 hrs; type: functional
Clostridioides difficile [15] = experiment: Ratio of MBC99.9 to MIC for Clostridium difficile CD196; type: functional

Structure (SMILES)	MIC (Clostridium perfringens) [µg/mL]	MIC (Enterococcus faecalis) [µg/mL]	MIC (Escherichia coli) [µg/mL]	MIC (Staphylococcus aureus) [µg/mL]	MIC (Streptococcus mutans) [µg/mL]	MIC [1] [µg/mL]	MIC (Bifidobacterium longum) [µg/mL]	MIC (Bacteroides fragilis) [µg/mL]	MIC (Clostridioides difficile [4]) [µg/mL]	MIC (Lacticaseibacillus casei) [µg/mL]	MIC [5] [µg/mL]	MBC (Clostridioides difficile [6]) [µg/mL]	further results
CCc1c(Cl)c(O)c(Cl)c(O)c1C(=O)O[C@H]1[C@H](O)[C@H](OC)[C@H](OC/C2=C\C=C\C[C@H](O)/C(C)=C/[C@H](CC)[C@@H](O[C@@H]3OC(C)(C)[C@@H](OC(=O)C(C)C)[C@H](O)[C@@H]3O)/C(C)=C/C(C)=C/C[C@@H]([C@@H](C)O)OC2=O)O[C@@H]1C [FIDAXOMICIN]	≤ 0.0075	12.5 (≈ 11.8 µM)	> 50	3.13 (≈ 2.96 µM)	3.13 (≈ 2.96 µM)	> 50	≤ 0.78	> 50	0.18 (≈ 0.17 µM)	> 50	> 50		MIC90 (Clostridioides difficile [2]): 0.008 µg/mL (≈ 0.00756 µM); Activity (Clostridioides difficile [3]): inactive
Cc1cc(C(=O)N/N=C/c2c(O)ccc3ccccc23)[nH]n1	≤ 3.13	> 50	> 50	> 50	> 50	> 50	> 50	> 50	3.13 (≈ 10.6 µM)	> 50	25 (≈ 84.9 µM)	3.13 (≈ 10.6 µM)	Activity (FaDu): > 100 µg/mL; Activity (Clostridioides difficile [7]): Dose-dependent effect; MCC at 24 h [8]: > 100 µg/mL
O=C(N/N=C/c1c(O)ccc2ccccc12)c1ccc(-c2ccccc2)cc1	3.13 (≈ 8.54 µM)	> 50	> 50	> 50	> 50	> 50	> 50	> 50	1.56 (≈ 4.26 µM)	> 50	> 50	3.13 (≈ 8.54 µM)	MIC [9]: 1.5 µg/mL (≈ 4.09 µM); MIC (Clostridioides difficile [10]): 1.5 µg/mL (≈ 4.09 µM); MIC (Clostridioides difficile [11]): 3 µg/mL (≈ 8.19 µM); MIC (Clostridioides difficile [12]): 3 µg/mL (≈ 8.19 µM); MIC (Clostridioides difficile [13]): 1.5 µg/mL (≈ 4.09 µM); MIC (Clostridioides difficile [14]): 1.5 µg/mL (≈ 4.09 µM); Ratio (Clostridioides difficile [15]): 2
